Data taken from DBAASP.
Values after ≈ are worked out from the molar mass of the structure shown. Values joined by “and” are separate entries in the source; they are usually repeats but may differ in a detail not shown here. Equal entries are not always repeated. Each block holds one compound with its values, some of them ahead of it.

How the values were obtained:
Experiment in all cases: ≥ marks a high value that may be exact or a test limit, other limits are often not marked, values filed in µg/mL are converted to µM
Bacillus subtilis = test system: Bacillus subtilis
[1] = test system: Candida albicans ATCC 2002
[2] = test system: Escherichia coli ATCC 25922
[3] = test system: Staphylococcus aureus ATCC 2592
Escherichia coli JW0013 = test system: Escherichia coli JW0013
[4] = test system: Enterococcus faecalis ATCC 29212
Escherichia coli UB1005 = test system: Escherichia coli UB1005
[5] = test system: Salmonella enterica subsp. enterica serovar Typhimurium C77-31
[6] = test system: Staphylococcus epidermidis ATCC 12228
[7] = test system: Staphylococcus aureus ATCC 29213
[8] = test system: Staphylococcus aureus ATCC 33591
[9] = test system: Pseudomonas aeruginosa PAO1
[10] = test system: Staphylococcus aureus ATCC 25923
[11] = test system: Pseudomonas aeruginosa ATCC 27853

Structure (SMILES): CC[C@H](C)[C@H](NC(=O)[C@H](CC(C)C)NC(=O)[C@H](CC(=O)O)NC(=O)[C@H](CCC(N)=O)NC(=O)[C@H](CCC(N)=O)NC(=O)[C@H](CC(C)C)NC(=O)[C@H](CCC(=O)O)NC(=O)[C@@H]1CCCN1C(=O)[C@@H](N)Cc1ccc(O)cc1)C(=O)N[C@@H](C)C(=O)N[C@@H](CCCN=C(N)N)C(=O)N[C@@H](CC(C)C)C(=O)N[C@@H](CC(C)C)C(=O)O [YPELQQDLIARLL]
MIC (Bacillus subtilis): 1.97 µM (≈ 3.1 µg/mL)
MIC [1]: 15.9 µM (≈ 25 µg/mL)
MIC [2]: 31.8 µM (≈ 50 µg/mL)
MIC [3]: 4.01 µM (≈ 6.3 µg/mL)

Structure (SMILES): CC[C@H](C)[C@H](NC(=O)[C@H](CCCCN)NC(=O)[C@H](Cc1c[nH]c2ccccc12)NC(=O)[C@H](CC(C)C)NC(=O)[C@H](CCCN=C(N)N)NC(=O)[C@H](CCCCN)NC(=O)[C@H](CCCN=C(N)N)NC(=O)[C@@H](NC(=O)[C@H](CCCCN)NC(=O)[C@H](Cc1c[nH]c2ccccc12)NC(=O)[C@H](CCCN=C(N)N)NC(=O)[C@H](CC(C)C)NC(=O)[C@H](CCCN=C(N)N)NC(=O)[C@H](CCCN=C(N)N)NC(=O)[C@H](Cc1ccccc1)NC(=O)[C@@H](N)CCCN=C(N)N)[C@@H](C)O)C(N)=O [RFRRLRWKTRKRLWKI]
MIC [4]: 8 µM (≈ 18.4 µg/mL)
MIC (Escherichia coli UB1005): 16 µM (≈ 36.8 µg/mL)
MIC [5]: 16 µM (≈ 36.8 µg/mL)
MIC [6]: 32 µM (≈ 73.6 µg/mL)

Structure (SMILES): CC[C@H](C)[C@H](NC(=O)[C@H](CCCCN)NC(=O)[C@H](CCCCN)NC(=O)[C@H](CC(C)C)NC(=O)[C@H](CCCN=C(N)N)NC(=O)[C@@H](NC(=O)[C@H](CCCN=C(N)N)NC(=O)[C@@H](NC(=O)[C@H](CCCCN)NC(=O)[C@@H](NC(=O)[C@H](CCCN=C(N)N)NC(=O)[C@H](CC(C)C)NC(=O)[C@H](CCCN=C(N)N)NC(=O)[C@H](CCCN=C(N)N)NC(=O)[C@H](Cc1ccccc1)NC(=O)[C@@H](N)CCCN=C(N)N)[C@@H](C)CC)[C@@H](C)O)[C@@H](C)CC)C(N)=O [RFRRLRIKTRIRLKKI]
MIC [4]: 16 µM (≈ 34.4 µg/mL)
MIC [2]: 8 µM and > 4 µM
MIC (Escherichia coli UB1005): 16 µM (≈ 34.4 µg/mL)
MIC [5]: 16 µM (≈ 34.4 µg/mL)
MIC [7]: 64 µM and > 32 µM
MIC [6]: 16 µM (≈ 34.4 µg/mL)

Structure (SMILES): NC(=O)[C@H](CCCN=C(N)N)NC(=O)[C@H](CCCN=C(N)N)NC(=O)[C@@H]1CCCN1C(=O)[C@H](CCCN=C(N)N)NC(=O)[C@H](CCCN=C(N)N)NC(=O)[C@H](CCCN=C(N)N)NC(=O)[C@H](Cc1c[nH]c2ccccc12)NC(=O)[C@H](CCCN=C(N)N)NC(=O)[C@H](CCCN=C(N)N)NC(=O)[C@H](CCCN=C(N)N)NC(=O)[C@H](CCCN=C(N)N)NC(=O)[C@H](CCCN=C(N)N)NC(=O)[C@H](Cc1c[nH]c2ccccc12)NC(=O)[C@H](CCCN=C(N)N)NC(=O)[C@H](CCCN=C(N)N)NC(=O)[C@H](Cc1ccc(O)cc1)NC(=O)[C@H](CCCN=C(N)N)NC(=O)[C@H](CCCN=C(N)N)NC(=O)[C@H](CCCN=C(N)N)NC(=O)[C@@H](N)Cc1c[nH]c2ccccc12 [WRRRYRRWRRRRRWRRRPRR]
MIC [2]: 3.13 µM (≈ 9.95 µg/mL)
MIC [11]: 3.13 µM (≈ 9.95 µg/mL)
MIC [10]: 1.56 µM (≈ 4.96 µg/mL)
MIC [8]: 1.56 µM (≈ 4.96 µg/mL)

Structure (SMILES): CC[C@H](C)[C@H](NC(=O)CNC(=O)[C@H](CO)NC(=O)[C@H](CCCN=C(N)N)NC(=O)[C@@H](N)Cc1ccccc1)C(=O)N[C@@H](CC(C)C)C(=O)N[C@@H](CCCCN)C(=O)N[C@@H](CC(C)C)C(=O)N[C@@H](C)C(=O)N[C@@H](CO)C(=O)N[C@@H](CCCCN)C(=O)N[C@H](C(=O)N1CCC[C@H]1C(=O)N[C@@H](CO)C(=O)N[C@H](C(=O)N[C@@H](CC(C)C)C(=O)N[C@H]1CSSC[C@@H](C(=O)O)NC(=O)[C@H](CC(N)=O)NC(=O)[C@H](CCCCN)NC(=O)[C@H](CC(C)C)NC(=O)[C@H](C(C)C)NC(=O)[C@H](C)NC1=O)C(C)C)[C@@H](C)CC [FRSGILKLASKIPSVLCAVLKNC]
MIC (Bacillus subtilis): 20.3 µM (≈ 50 µg/mL)
MIC [1]: 10.2 µM (≈ 25 µg/mL)
MIC [2]: 20.3 µM (≈ 50 µg/mL)
MIC [3]: 5.08 µM (≈ 12.5 µg/mL)

Structure (SMILES): CC[C@H](C)[C@@H]1NC(=O)[C@H](CO)NC(=O)[C@H](CCCCN)NC(=O)[C@H]([C@@H](C)O)NC(=O)[C@H](Cc2c[nH]c3ccccc23)NC(=O)[C@@H](NC(=O)CNC(=O)[C@H](CCCCN)NC(=O)[C@@H](N)CC(C)C)CSSC[C@@H](C(=O)N[C@@H](Cc2ccccc2)C(=O)O)NC(=O)[C@@H]2CCCN2C(=O)[C@H](CCCCN)NC(=O)[C@@H]2CCCN2C(=O)[C@@H]2CCCN2C1=O [LKGCWTKSIPPKPCF]
MIC (Bacillus subtilis): 1.37 µM (≈ 2.34 µg/mL)
MIC [1]: 2.75 µM (≈ 4.68 µg/mL)
MIC [2]: 1.37 µM (≈ 2.34 µg/mL)
MIC [3]: 1.03 µM (≈ 1.76 µg/mL)

More lines, now with the values ahead:

MIC (Escherichia coli JW0013): 1.99 µM (≈ 4.8 µg/mL)
Structure (SMILES): CC[C@H](C)[C@H](NC(=O)[C@H](CCCN=C(N)N)NC(=O)[C@H](CCCN=C(N)N)NC(=O)[C@@H]1CCCN1C(=O)[C@@H]1CCCN1C(=O)[C@H](CCCN=C(N)N)NC(=O)[C@@H]1CCCN1C(=O)[C@H](CCCN=C(N)N)NC(=O)[C@@H]1CCCN1C(=O)[C@H](CC(C)C)NC(=O)[C@H](Cc1ccc(O)cc1)NC(=O)[C@@H]1CCCN1C(=O)[C@H](CC(=O)O)NC(=O)[C@H](CCCCN)NC(=O)[C@H](CC(=O)O)NC(=O)[C@@H](N)C(C)C)C(=O)N[C@@H](Cc1ccc(O)cc1)C(=O)N[C@@H](CC(N)=O)C(=O)N[C@@H](CCCN=C(N)N)C(N)=O [VDKDPYLPRPRPPRRIYNR]

MIC (Escherichia coli JW0013): 1.38 µM (≈ 3.3 µg/mL)
Structure (SMILES): CC[C@H](C)[C@H](NC(=O)[C@H](CCCN=C(N)N)NC(=O)[C@H](CCCN=C(N)N)NC(=O)[C@@H]1CCCN1C(=O)[C@@H]1CCCN1C(=O)[C@H](CCCN=C(N)N)NC(=O)[C@@H]1CCCN1C(=O)[C@H](CCCN=C(N)N)NC(=O)[C@@H]1CCCN1C(=O)[C@H](CC(C)C)NC(=O)[C@H](CCCN=C(N)N)NC(=O)[C@@H]1CCCN1C(=O)[C@@H]1CCCN1C(=O)[C@H](CCCCN)NC(=O)[C@H](CC(=O)O)NC(=O)[C@@H](N)C(C)C)C(=O)N[C@@H](Cc1ccc(O)cc1)C(=O)N[C@@H](CC(N)=O)C(=O)N[C@@H](CCCN=C(N)N)C(N)=O [VDKPPRLPRPRPPRRIYNR]

MIC (Escherichia coli JW0013): 0.634 µM (≈ 1.6 µg/mL)
Structure (SMILES): CC[C@H](C)[C@H](NC(=O)[C@H](CCCN=C(N)N)NC(=O)[C@H](CCCN=C(N)N)NC(=O)[C@@H]1CCCN1C(=O)[C@@H]1CCCN1C(=O)[C@H](CCCN=C(N)N)NC(=O)[C@H](CCCN=C(N)N)NC(=O)[C@H](CCCN=C(N)N)NC(=O)[C@@H]1CCCN1C(=O)[C@H](CCCN=C(N)N)NC(=O)[C@H](Cc1ccc(O)cc1)NC(=O)[C@@H]1CCCN1C(=O)[C@H](CCCCN)NC(=O)[C@H](CCCCN)NC(=O)[C@H](CC(=O)O)NC(=O)[C@@H](N)C(C)C)C(=O)N[C@@H](Cc1ccc(O)cc1)C(=O)N[C@@H](CC(N)=O)C(=O)N[C@@H](CCCN=C(N)N)C(N)=O [VDKKPYRPRRRPPRRIYNR]

MIC (Escherichia coli JW0013): 0.524 µM (≈ 1.3 µg/mL)
Structure (SMILES): CC[C@H](C)[C@H](NC(=O)[C@H](CCCN=C(N)N)NC(=O)[C@H](CCCN=C(N)N)NC(=O)[C@@H]1CCCN1C(=O)[C@@H]1CCCN1C(=O)[C@H](CCCN=C(N)N)NC(=O)[C@@H]1CCCN1C(=O)[C@H](CCCN=C(N)N)NC(=O)[C@@H]1CCCN1C(=O)[C@H](CC(C)C)NC(=O)[C@H](CCCN=C(N)N)NC(=O)[C@H](Cc1cnc[nH]1)NC(=O)[C@H](CCCN=C(N)N)NC(=O)[C@H](CCCCN)NC(=O)[C@H](CC(=O)O)NC(=O)[C@@H](N)C(C)C)C(=O)N[C@@H](Cc1ccc(O)cc1)C(=O)N[C@@H](CC(N)=O)C(=O)N[C@@H](CCCN=C(N)N)C(N)=O [VDKRHRLPRPRPPRRIYNR]

MIC [2]: 16 µM (≈ 37.4 µg/mL)
MIC [8]: 16 µM (≈ 37.4 µg/mL)
Structure (SMILES): CC[C@H](C)[C@H](NC(=O)[C@H](CCC(N)=O)NC(=O)[C@H](CC(C)C)NC(=O)[C@H](CCC(N)=O)NC(=O)[C@@H](NC(=O)[C@H](CCCN=C(N)N)NC(=O)[C@H](Cc1ccccc1)NC(=O)[C@H](Cc1c[nH]c2ccccc12)NC(=O)[C@@H](N)CCCN=C(N)N)[C@@H](C)CC)C(=O)N[C@@H](CCCN=C(N)N)C(=O)N[C@@H](CCCN=C(N)N)C(=O)N[C@@H](Cc1c[nH]c2ccccc12)C(=O)N[C@@H](CCCN=C(N)N)C(=O)N[C@@H](CC(N)=O)C(=O)N[C@@H](CCCN=C(N)N)C(=O)N[C@@H](CCCN=C(N)N)C(N)=O [RWFRIQLQIRRWRNRR]

MIC (Escherichia coli JW0013): 0.98 µM (≈ 2.4 µg/mL)
MIC (Escherichia coli UB1005): 2.04 µM (≈ 5 µg/mL)
MIC [9]: 26.1 µM (≈ 64 µg/mL)
MIC [10]: 6.53 µM (≈ 16 µg/mL)
Structure (SMILES): CC[C@H](C)[C@H](NC(=O)[C@H](CCCN=C(N)N)NC(=O)[C@H](CCCN=C(N)N)NC(=O)[C@@H]1CCCN1C(=O)[C@@H]1CCCN1C(=O)[C@H](CCCN=C(N)N)NC(=O)[C@H](CCCN=C(N)N)NC(=O)[C@H](CCCN=C(N)N)NC(=O)[C@@H]1CCCN1C(=O)[C@H](CC(C)C)NC(=O)[C@H](Cc1ccc(O)cc1)NC(=O)[C@@H]1CCCN1C(=O)[C@@H]1CCCN1C(=O)[C@H](CCCCN)NC(=O)[C@H](CC(=O)O)NC(=O)[C@@H](N)C(C)C)C(=O)N[C@@H](Cc1ccc(O)cc1)C(=O)N[C@@H](CC(N)=O)C(=O)N[C@@H](CCCN=C(N)N)C(N)=O [VDKPPYLPRRRPPRRIYNR]

MIC (Escherichia coli JW0013): 2.04 µM (≈ 4.8 µg/mL)
Structure (SMILES): CC[C@H](C)[C@H](NC(=O)[C@H](CCCN=C(N)N)NC(=O)[C@H](CCCN=C(N)N)NC(=O)[C@@H]1CCCN1C(=O)[C@@H]1CCCN1C(=O)[C@H](CCCN=C(N)N)NC(=O)[C@@H]1CCCN1C(=O)[C@H](CCCN=C(N)N)NC(=O)[C@@H]1CCCN1C(=O)[C@H](CC(C)C)NC(=O)[C@H](CCCCN)NC(=O)[C@@H]1CCCN1C(=O)[C@@H]1CCCN1C(=O)[C@H](CCCCN)NC(=O)[C@H](CC(=O)O)NC(=O)[C@@H](N)C(C)C)C(=O)N[C@@H](Cc1ccc(O)cc1)C(=O)N[C@@H](CC(N)=O)C(=O)N[C@@H](CCCN=C(N)N)C(N)=O [VDKPPKLPRPRPPRRIYNR]
